Reference: BigSolDB 2.1

O=C(Nc1ccc(F)cc1F)c1cccnc1Oc1cccc(C(F)(F)F)c1
solubility (mole fraction)
Settings | 278.15 K | 283.15 K | 288.15 K | 293.15 K | 298.15 K | 303.15 K | 308.15 K | 313.15 K | 318.15 K | 323.15 K
in acetone | 0.00903 | 0.0107 | 0.0127 | 0.0152 | 0.018 | 0.021 | 0.0247 | 0.029 | 0.0339 | 0.0408
in cyclohexane | – | 0.000103 | 0.000162 | 0.000229 | 0.000334 | 0.000458 | 0.000613 | 0.000806 | 0.00112 | 0.00147
in ethanol | 0.000251 | 0.000332 | 0.00043 | 0.000545 | 0.000681 | 0.000857 | 0.00107 | 0.00139 | 0.00173 | 0.00214
in isopropanol | 4.65e-05 | 7.36e-05 | 0.000116 | 0.000183 | 0.000282 | 0.000431 | 0.000665 | 0.001 | 0.00152 | 0.0022
in methanol | 0.000235 | 0.000293 | 0.000377 | 0.000474 | 0.0006 | 0.00075 | 0.000938 | 0.00117 | 0.00147 | 0.00187
in toluene | 0.00513 | 0.00638 | 0.00779 | 0.00954 | 0.0116 | 0.0142 | 0.0177 | 0.0215 | 0.0252 | 0.0303
